This note sets out measurements from US8716030B2, “Means for the inhibition of anti-β1-adrenergic receptor antibodies” (Julius-Maximillians-Universitat Wurzburg, A Germany …, priority 2005, dated 2014).

Entries after “also recorded” stand apart in the source; their conditions may differ. Where two headings read alike, the source gives them in different places.

Data set [1] concerns rats immunized against the second β1-receptor loop (β1-ECII). In words: Prevention of immune-cardiomyopathy in the human analogue rat model.
Data set [2] relates to immunized anti-β1-positive cardiomyopathic rats. In words: Treatment of immune-cardiomyopathy in the human analogue rat model (therapy study). It is filed as in vivo, Lewis CrlBR rats. The settings on record: for regression of LV dilatation: therapy study; for regression of LV dilatation / biological efficiency (reversal of the cardiomyopathic phenotype): echocardiography; for progression of the disease monitored by echocardiography: within the 12 months of treatment, compared with untreated antibody positive animals, FIGS. 10 and 11; for biological efficiency (reversal of the cardiomyopathic phenotype): FIGS. 10d and 11d.

Data set [3] has the same test system. The description is as above. The settings on record: therapy every 4 weeks after 8 months of immunization; FIGS. 8a and 8b. It is filed as in vivo, Lewis CrlBR rats. An excerpt:
Lewis CrlBR rats were used as animals. […] Therapy was started after 8 months of regular (1× monthly) immunization. Monthly immunization was continued under therapy.
FIG. 8b is a diagram comparing the titer course of specific anti-ECII antibodies dependent on the different peptide variants used in the therapy arm of the study, whereby 25AA means the cyclic peptide Ic, 18AA means the shorter 18 amino-acid variant, and 16AA the shorter 16 amino-acid variant of the peptide. “Beta1 untreated” means immunized anti-1-positive cardiomyopathic not treated animals, “Beta1/pept. […] ECII-25AA, ECII-18AA, ECII-16AA” means immunized anti-1-positive cardiomyopathic animals treated with the 25AA-, 18AA-, or 16AA-peptide, respectively.
[…]. In general, the number of amino acids and thus the length of the primary structure appears to be crucial for the biological effects of the peptides of the present invention. A peptide-length equal to or above 26 amino acids (primary structure) is thought to be capable of stimulating directly (that is, without the use of carrier proteins) immunocompetent T-cells and thus provoke a paradoxal increase in anti-β1-receptor antibody production through T-cell mediated B-cell stimulation. Therefore, in the frame of the therapy study a limited number of pilot animals was treated with shorter peptide-variants of the 25 amino-acid peptide Ic, i.e. variants comprising either 18 or 16 amino-acids of the cyclic peptide. The used constructs were: ECII-18AA, cyclo([…] (SEQ ID NO:1); and ECII-16AA, cyclo([…] (SEQ ID NO.2). Upon administration of shorter peptide-variants of the present invention peptide every 4 weeks, a rapid decrease in the specific anti-beta 1-ECII antibody titer was equally observed within the first 6 months of therapy.

For the next data set, the system named is CD4+ T-cells. Kind of data set: T-cell recall assay with CD4+ T-cells from immunized animals (FIG. 19). It is filed as cell-based, rat. The settings on record: T-cells from prophylactically or therapeutically treated immunized animals; peptide 10 μg/ml, FP 1.0 or 0.1 μg/mL. The procedure: “Cont.” means the respective not immunized control animals. The assays were carried out according to Schmidt J. et al. (2003) J Neuroimmunol. 140, 143-152. In brief, to purify CD4+ T-cells from the splenic cell preparations, B-cells and CD8+ T-cells were depleted by commercially available magnetic beads (MACS®), yielding a purity of CD4+ cells >85%. 1×10^5 CD4+ of the purified T-cells were then co-incubated in 96-well plates with 1×10^6 irradiated thymic antigen presenting cells (prepared from a younger rat). Reagents added in the different assays (conditions) were: 10 μg/ml glutathion-S-transferase (GST), 2 μg/ml Concanavalin A (ConA, positive control), 10 μg/ml 25AA-ECII peptide (Pept.25AA), and GST/beta1-ECII fusion protein (FP) at a concentration of 1.0 and 0.1 μg/ml, respectively. The measured T-cell reactivities were normalized to the respective T-cell reactivities obtained with 10 μg/ml purified protein derivative (PPD) carried out in parallel under each condition. After 48 hours of incubation, 50% of the supernatants were removed and replaced by fresh medium. The cells were then pulsed with 1.25 μCi/well [^3H]-thymidine and further incubated for 16 hours before the cells were harvested, and the DNA-incorporated radioactivity was measured using a beta-plate.

Data set [4] relates to rats immunized against the second β1-receptor loop (β1-ECII). The settings on record: rat, in vivo.

As to `CC(C)NCC(O)COc1ccc(COCCOC(C)C)cc1` (stereo not drawn) [bisoprolol, reference compound], in data set [1] (FIG. 12 and FIG. 13, examples 3 and 4 (prevention and therapy study)), the “impact on heart rate and blood pressure” value was “significantly reduced both heart rate and blood pressure”. The heart rate result in data set [1] (prophylactic treatment, FIGS. 5 and 12) is on record as “significant reduction in heart rate”. Further, the “cardiac β1-receptor density (down-/upregulation)” value in data set [2] (FIGS. 17 and 18 (prevention and therapy study)) is recorded as “β1-receptor upregulation”. Further, in data set [2], the “regression of LV dilatation” value is listed as “could not be reversed completely” and the “progression of the disease monitored by echocardiography” value (from here on “progression of the disease monitored”) is reported as “no progression”. The “circulating specific anti-β1-ECII antibody titer” value in data set [3] is reported as “had even higher beta1-antibody titers”.

Turning to “cyclo(Ala-Arg-Ala-Glu-Ser-Asp-Glu-Ala-Arg-Arg-Cys-Tyr-Asn-Asp-Pro-Lys-Cys-Cys-Asp-Phe-Val-Thr-Asn-Arg-Gln) (cyclo(ARAESDEARRCYNDPKCCDFVTNRQ); not fully specified; printed as cyclo(Ala-Arg-Ala-Glu-Ser-Asp-Glu-Ala-Arg-Arg-Cys-Tyr-Asn-Asp-Pro-Lys-Cys-Cys-Asp-Phe-Val-Thr-Asn-Arg-Gln); cysteine pairing not given here) [peptide Ic]”, the “specific anti-β1-ECII antibody-titer” value in data set [1] (1 mg/kg s.c. or i.v. every 4 weeks, prophylactic, FIG. 4) is “prevented a further increase of the specific anti-β1-ECII antibody-titer with the titer even continuously declining”. Further, the “immune response upon antigen boost every 4 weeks” value in data set [1] (from the fifth month on, FIG. 4) is “no more immune response”. Moreover, in data set [2], the “biological efficiency (reversal of the cardiomyopathic phenotype)” value (“biological efficiency” for short) is “reversal of the cardiomyopathic phenotype”, the “regression of LV dilatation” value is “significant regression of LV dilatation” and the “progression of the disease monitored” value is on record as “no progression”. Besides, the “stimulation and proliferation of CD4+ T-cells” value with CD4+ T-cells is given as “neither treatment group resulted in a significant stimulation”. For the same compound, the heart rate result in data set [4] was “did neither decrease heart rate”. Further, the “circulating specific anti-β1-ECII antibody titer” value in data set [3] is on record as “surprisingly rapid decrease; also recorded: reduced by about a same extent”.

Regarding “cyclo(Ala-Arg-Arg-Cys-Tyr-Asn-Asp-Pro-Lys-Cys-Cys-Asp-Phe-Val-Tyr-Gln) (cyclo(ARRCYNDPKCCDFVYQ); not fully specified; printed as cyclo(Ala-Arg-Arg-Cys-Tyr-Asn-Asp-Pro-Lys-Cys-Cys-Asp-Phe-Val-Tyr-Gln); cysteine pairing not given here) [ECII-16AA]”, in data set [2], the “biological efficiency” value was “ambiguous results in 2 treated rats with one animal having complete reversal of the cardiomyopathic phenotype, the other animal progressive LV dilatation and dysfunction”; the “regression of LV dilatation” value is “obviously being less effective”; the “progression of the disease monitored” value was “at least the progression of the disease was stopped or stabilized”. Also, in data set [3], the “circulating specific anti-β1-ECII antibody titer” value is on record as “remain stable instead of decreasing”.

In the case of “cyclo(Ala-Asp-Glu-Ala-Arg-Arg-Cys-Tyr-Asn-Asp-Pro-Lys-Cys-Cys-Asp-Phe-Val-Gln) (cyclo(ADEARRCYNDPKCCDFVQ); not fully specified; printed as cyclo(Ala-Asp-Glu-Ala-Arg-Arg-Cys-Tyr-Asn-Asp-Pro-Lys-Cys-Cys-Asp-Phe-Val-Gln); cysteine pairing not given here) [ECII-18AA]”, in data set [2], the “biological efficiency” value is listed as “reversal of the cardiomyopathic phenotype” and the “regression of LV dilatation” value was “significant regression of LV dilatation”. Further, the “circulating specific anti-β1-ECII antibody titer” value in data set [3] was “reduced by about a same extent”.
